Data set [1] is described as follows: Bioavailability assay (pharmacokinetic study). As to conditions: mouse; IV 1 mg/kg, PO 30 mg/kg (Compound A PO 10 mg/kg).
For a further data set, the system named is IRE1a. The experiment in a line: IRE1a phosphorylation inhibition assay (immunoblot, 293T cells, tunicamycin). It counts as cell-based, human. The procedure:
Inhibition of ER stress-induced IRE1a phosphorylation and XBP1s protein accumulation in human 293T cells assessed. Immunoblot analysis was performed in human 293T cells lysates obtained from cells after exposure to the chemical ER stress-inducing agent tunicamycin, and optional treatment with Compound C. Lysates were probed with antibodies recognizing IRE1a, phosphorylated IRE1a, XBP1, or TATA-binding protein (TBP). (TBP) was blotted as a protein loading control. […] See FIG. 8, 20 nM was sufficient to reduce XBP1s protein levels below the limit of detection in this assay.
On the technique in general: A western blot detects proteins with antibodies after separation by electrophoresis.

The nature of data set [2]: Metabolic assays of N,N-dimethyl compounds. Conditions: data not shown. The format is in vitro ADME.
Data set [3] has as its system IRE1a-mediated XBP1 splicing. The experiment in a line: Target engagement in pancreas and salivary gland (RT-qPCR XBP1 splicing). The format is in vivo. As to conditions: mouse, 30 mg/kg oral gavage, 6 hours; compared to control and Compound B. The procedure:
Mice (n=3 per group) were orally gavaged with 30 mg/kg vehicle control or IRE1 inhibitors dissolved in H2O. After 6 hours, mice were euthanized and pancreas and salivary gland tissues were isolated, snap frozen on dry ice, and used for subsequent RT-qPCR analysis of beta-actin, XBP1s and total XBP1. Gene expression was evaluated by quantitative PCR for XBP1s and total XBP1 transcripts using the 2^(−ΔCT) method for calculating normalized gene expression. Gene expression levels were normalized to Actb transcripts. XBP1 splicing is calculated as XBP1s expression divided by total XBP1 expression.
On the technique in general: Real-time PCR tracks product formation cycle by cycle.

A further data set relates to IRE1a/XBP1 pathway. Nature of the data set: Inhibition of endogenous XBP1 splicing in 293T cells with tunicamycin. It counts as cell-based, human. The procedure: Gene expression was evaluated by quantitative PCR for XBP1s and total XBP1 transcripts using the 2^(−ΔCT) method for calculating normalized gene expression. Gene expression levels were normalized to ACTB transcripts. XBP1 splicing was calculated as actin-normalized XBP1s expression divided by actin-normalized total XBP1 expression.

Data set [4] relates to IRE1a-dependent XBP1 splicing. Nature of the data set: Inhibition of IRE1a-dependent XBP1 splicing in mice with metastatic ovarian cancer. It counts as in vivo, mouse. Conditions: single oral dose 45 mg/kg, 24 hours, FACS-isolated ascites cells. The procedure:
Mice (n=3) with established metastatic ovarian cancer were orally gavaged with 45 mg/kg vehicle control or inhibitor dissolved in H2O. The Inhibitor was Compound C. Compound C is 2-chloro-N-(5-(2-(((1r,4r)-4-dimethylamino)cyclohexyl)amino)-8-ethylquinazolin-6-yl)-6-methylpyridin-2-yl)benzenesulfonamide, Compound 91, described herein. After 24 hours, mice were euthanized, ascites-resident cells were extracted and tumor cells, dendritic cells (DCs), and CD4+ T cells were isolated by FACS. The samples were used for subsequent if RT-qPCR analysis of beta-actin, XBP1s and total XBP1. Gene expression was evaluated by quantitative PCR for XBP1s and total XBP1 transcripts using the 2^(−ΔCT) method for calculating normalized gene expression. Gene expression levels were normalized to Actb transcripts. XBP1 splicing is calculated as XBP1s expression divided by total XBP1 expression. A single oral dose of Compound C suppressed IRE1a-dependent XBP1 splicing in tumor cells and relevant immune cells in vivo over 24 hours, FIG. 7.
Mice (n=3) with established metastatic ovarian cancer were orally gavaged with 45 mg/kg vehicle control or inhibitor dissolved in H2O. […] Gene expression was evaluated by quantitative PCR for XBP1s and total XBP1 transcripts using the 2^(−ΔCT) method for calculating normalized gene expression. […] XBP1 splicing is calculated as XBP1s expression divided by total XBP1 expression. […]

This note sets out measurements from patent publication US12071424B2, “IRE1 small molecule inhibitors” (Cornell University, priority 2017, dated 2024).

With `CCc1cc(-c2ccc(NS(=O)(=O)c3ccccc3Cl)nc2C)cc2cnc(N[C@H]3CC[C@H](N)CC3)nc12` [Compound A, N-(5-(2-(((1r,4r)-4-aminocyclohexyl)amino)-8-ethylquinazolin-6-yl)-6-methylpyridin-2-yl)-2-chlorobenzenesulfonamide], the oral bioavailability in data set [1] worked out at 4%.

As to `CCc1cc(-c2ccc(NS(=O)(=O)c3ccccc3Cl)nc2C)cc2cnc(N[C@H]3CC[C@H](N(C)C)CC3)nc12` [Compound C], in the data set with IRE1a, the “concentration sufficient to reduce XBP1s protein levels below the limit of detection” value amounted to 20 nM. Besides, in the data set with IRE1a (pre-incubation with compound), the IRE1a phosphorylation result is on record as “strongly repressed” and the “accumulation of XBP1s protein” value is given as “completely abrogated”. Besides, the metabolism result in data set [2] is listed as “removal of the methyl groups”. For the same compound, in data set [3], the “IRE1a-mediated XBP1 splicing in pancreas and salivary gland” value is “potently suppressed”. The “shift in potency between Compound A and Compound C” value in the data set on IRE1a/XBP1 pathway is reported as “approximately 3.6 ×”. Moreover, the “IRE1a-dependent XBP1 splicing in tumor cells and immune cells in vivo” value in data set [4] is “suppressed”.

As to `CCc1cc(-c2ccc(NS(=O)(=O)c3ccccc3Cl)nc2OC)cc2cnc(N[C@H]3CC[C@H](N(C)C)CC3)nc12` [Compound D], the metabolism entry in data set [2] is “removal of the methyl groups”. The “IRE1a-mediated XBP1 splicing in pancreas and salivary gland” value in data set [3] is listed as “potently suppressed”. In addition, the “IRE1a-dependent XBP1 splicing in tumor cells and immune cells in vivo” value in data set [4] is listed as “suppressed”.
